# pKd: −log10 of the molar value.
# Tests used:
# [1] = molecular target: T1, FVIII (Homo sapiens, UniProt P00451); assay: Binding of OPLS to FVIII by fluorescence spectroscopy
# T1 construct: Full length recombinant human FVIII (Baxter Biosciences, Carlsbad, Calif.) was obtained as a gift; purchased Baxter Biosciences (gift from the Western New York Hemophilia Foundation)
# Description: The binding of OPLS to several therapeutic proteins was evaluated using fluorescence spectroscopy (FIG. 2).
# [2] = molecular target: T2, GAA peptide (Homo sapiens, UniProt P10253); assay: Binding of OPLS to GAA peptide by ultraviolet/visible spectroscopy
# T2 construct: purchased American Peptide Company (Sunnyvale, Calif.); host or cells: chemical synthesis
# Excerpt: Instead of using fluorescence to detect binding, ultraviolet/visible spectroscopy was used.
# [3] = tested on: IL-12p70; assay: Cytokine profile of BMDCs in vitro, IL-12p70 ELISA; type: cell-based, HA mice; details: 1 μg/ml FVIII with 50 mM OPLS, 48 hours, n=4
# Description: (§1) Generation of bone marrow derived dendritic cells (BMDC): Bone marrow was isolated from 6 to 8 week old naïve HA. Briefly, bone marrow was cultured in RPMI media supplemented with […] (low endotoxin), 2-mercaptoethanol, Pen/Strep and […] GMCSF. Media was changed on days 3, 6 and 8 of culture and DCs were used on day 9. BMDC are then harvested and used as needed. To verify the differentiation of bone marrow cells into DCs, CD11c surface expression was confirmed by flow cytometry using anti-CD11c-FITC antibody with appropriate isotope controls.
# (§2) Effects of OPLS on cytokine profile of BMDCs in vitro: The effects of OPLS on cytokine secretion by dendritic cells were investigated. On day 9 BMDCs, generated as above, were treated with FVIII as an antigen in the presence of increasing dose of OPLS. Changes in production of pro-inflammatory cytokines TNF-α and IL12p70 as well as the regulatory cytokine TGF-β were monitored as a function of dose. BMDCs were exposed to 1 μg/ml FVIII with increasing dose of OPLS (0, 0.5, 1, 10, 25, 50 mM). 1 M stock of OPLS was prepared by adding the appropriate amount of OPLS directly to RPMI media, and pH was adjusted using sterile 3N and 1N NaOH. […] TGF-β, TNF-α and IL-12p70 concentrations were determined using standard ELISA (R&D System Inc. Minneapolis, Minn., USA or Invitrogen […], Calif.).
# [4] = tested on: TGF-β; assay: Cytokine profile of BMDCs in vitro, TGF-β ELISA; type: cell-based, HA mice; details: 1 μg/ml FVIII with 0-50 mM OPLS, 48 hours, n=4
# Description: as §1, §2
# [5] = PK of FVIII in the presence and absence of OPLS; type: in vivo, HA mice
# [6] = tested on: anti-Humira antibody titers; assay: Effect of OPLS on immunogenicity of adalimumab; type: in vivo, mice; details: 5 mg OPLS with Humira s.c., 4 weekly injections, 2 weeks washout
# Description: Methods: n=8 animals/group were immunized with 4 weekly s.c. injections of 10 μg of adalimumab in 100 μl of either sterile TRIS for the free group or in 5 mg OPLS in sterile TRIS for the OPLS-Adalimumab group. After a 2 week rest period, a blood sample from the saphenous vein was collected for titer analysis. Titer values were obtained by classical sandwitch ELISA. Briefly, Nunc-Maxisorb 96-well plates were coated overnight at 4° C. with 50 μl/well of 2.5 μg/ml Humira. Plates were then washed and blocked with 1% bovine serum albumin (blocking buffer). 50 μl/well of various dilutions of the sample were added to the plate and incubated at room temperature for 2 h. Plasma samples from animals exposes to a sham treatment (buffer only) served as controls. The plates were then washed and incubated with 50 μl of goat anti-mouse anti-body-HRP conjugate at a 1:50000 dilution in blocking buffer at room temperature for 1 h. Color was developed for 20 min with 100 μl of TMB solution. 100 μl of 2 N H2SO4 was used to stop the reaction. Optical density at […] was measured using a plate reader. Non-responders were given the value of the plate specific factor for uniformity.
# [7] = Plasma chemistry markers after 28 daily injections of OPLS; type: in vivo, CD-1 mice; details: up to highest dose, 1 day after dosing
# Excerpt: FIG. 21. Effect of 28 daily injections of a range of OPLS doses on plasma chemistry markers of CD-1 mice. Samples were collected from animals 1 day after the termination of dosing.
# [8] = tested on: lymphocyte subsets; assay: Lymphocyte subsets in peripheral blood after 21 daily doses of OPLS; type: in vivo, rhesus macaques; details: 21 daily doses of 25 mg/kg
# Description: FIG. 23. Effect of 21 daily doses of 25 mg/kg OPLS on lymphocyte subsets in peripheral blood of rhesus macaques. Samples were drawn from the animals at baseline (day 0), at an intermediate time point during treatment (day 8) and 1 day after the termination of dosing (day 22) and immunophenotyped using flow cytometry. […] (*p value<0.05).
# [9] = Plasma chemistry markers after 21 daily doses of OPLS; type: in vivo, rhesus macaques; details: 21 daily doses of 25 mg/kg, days 0, 8, 22
# Description: FIG. 24. Effect of 21 daily doses of 25 mg/kg OPLS on plasma chemistry markers of rhesus macaques. Samples were drawn from the animals at baseline (day 0), at an intermediate time point during treatment (day 8) and 1 day after the termination of dosing (day 22).
# T1 sequence (P00451 20-2351): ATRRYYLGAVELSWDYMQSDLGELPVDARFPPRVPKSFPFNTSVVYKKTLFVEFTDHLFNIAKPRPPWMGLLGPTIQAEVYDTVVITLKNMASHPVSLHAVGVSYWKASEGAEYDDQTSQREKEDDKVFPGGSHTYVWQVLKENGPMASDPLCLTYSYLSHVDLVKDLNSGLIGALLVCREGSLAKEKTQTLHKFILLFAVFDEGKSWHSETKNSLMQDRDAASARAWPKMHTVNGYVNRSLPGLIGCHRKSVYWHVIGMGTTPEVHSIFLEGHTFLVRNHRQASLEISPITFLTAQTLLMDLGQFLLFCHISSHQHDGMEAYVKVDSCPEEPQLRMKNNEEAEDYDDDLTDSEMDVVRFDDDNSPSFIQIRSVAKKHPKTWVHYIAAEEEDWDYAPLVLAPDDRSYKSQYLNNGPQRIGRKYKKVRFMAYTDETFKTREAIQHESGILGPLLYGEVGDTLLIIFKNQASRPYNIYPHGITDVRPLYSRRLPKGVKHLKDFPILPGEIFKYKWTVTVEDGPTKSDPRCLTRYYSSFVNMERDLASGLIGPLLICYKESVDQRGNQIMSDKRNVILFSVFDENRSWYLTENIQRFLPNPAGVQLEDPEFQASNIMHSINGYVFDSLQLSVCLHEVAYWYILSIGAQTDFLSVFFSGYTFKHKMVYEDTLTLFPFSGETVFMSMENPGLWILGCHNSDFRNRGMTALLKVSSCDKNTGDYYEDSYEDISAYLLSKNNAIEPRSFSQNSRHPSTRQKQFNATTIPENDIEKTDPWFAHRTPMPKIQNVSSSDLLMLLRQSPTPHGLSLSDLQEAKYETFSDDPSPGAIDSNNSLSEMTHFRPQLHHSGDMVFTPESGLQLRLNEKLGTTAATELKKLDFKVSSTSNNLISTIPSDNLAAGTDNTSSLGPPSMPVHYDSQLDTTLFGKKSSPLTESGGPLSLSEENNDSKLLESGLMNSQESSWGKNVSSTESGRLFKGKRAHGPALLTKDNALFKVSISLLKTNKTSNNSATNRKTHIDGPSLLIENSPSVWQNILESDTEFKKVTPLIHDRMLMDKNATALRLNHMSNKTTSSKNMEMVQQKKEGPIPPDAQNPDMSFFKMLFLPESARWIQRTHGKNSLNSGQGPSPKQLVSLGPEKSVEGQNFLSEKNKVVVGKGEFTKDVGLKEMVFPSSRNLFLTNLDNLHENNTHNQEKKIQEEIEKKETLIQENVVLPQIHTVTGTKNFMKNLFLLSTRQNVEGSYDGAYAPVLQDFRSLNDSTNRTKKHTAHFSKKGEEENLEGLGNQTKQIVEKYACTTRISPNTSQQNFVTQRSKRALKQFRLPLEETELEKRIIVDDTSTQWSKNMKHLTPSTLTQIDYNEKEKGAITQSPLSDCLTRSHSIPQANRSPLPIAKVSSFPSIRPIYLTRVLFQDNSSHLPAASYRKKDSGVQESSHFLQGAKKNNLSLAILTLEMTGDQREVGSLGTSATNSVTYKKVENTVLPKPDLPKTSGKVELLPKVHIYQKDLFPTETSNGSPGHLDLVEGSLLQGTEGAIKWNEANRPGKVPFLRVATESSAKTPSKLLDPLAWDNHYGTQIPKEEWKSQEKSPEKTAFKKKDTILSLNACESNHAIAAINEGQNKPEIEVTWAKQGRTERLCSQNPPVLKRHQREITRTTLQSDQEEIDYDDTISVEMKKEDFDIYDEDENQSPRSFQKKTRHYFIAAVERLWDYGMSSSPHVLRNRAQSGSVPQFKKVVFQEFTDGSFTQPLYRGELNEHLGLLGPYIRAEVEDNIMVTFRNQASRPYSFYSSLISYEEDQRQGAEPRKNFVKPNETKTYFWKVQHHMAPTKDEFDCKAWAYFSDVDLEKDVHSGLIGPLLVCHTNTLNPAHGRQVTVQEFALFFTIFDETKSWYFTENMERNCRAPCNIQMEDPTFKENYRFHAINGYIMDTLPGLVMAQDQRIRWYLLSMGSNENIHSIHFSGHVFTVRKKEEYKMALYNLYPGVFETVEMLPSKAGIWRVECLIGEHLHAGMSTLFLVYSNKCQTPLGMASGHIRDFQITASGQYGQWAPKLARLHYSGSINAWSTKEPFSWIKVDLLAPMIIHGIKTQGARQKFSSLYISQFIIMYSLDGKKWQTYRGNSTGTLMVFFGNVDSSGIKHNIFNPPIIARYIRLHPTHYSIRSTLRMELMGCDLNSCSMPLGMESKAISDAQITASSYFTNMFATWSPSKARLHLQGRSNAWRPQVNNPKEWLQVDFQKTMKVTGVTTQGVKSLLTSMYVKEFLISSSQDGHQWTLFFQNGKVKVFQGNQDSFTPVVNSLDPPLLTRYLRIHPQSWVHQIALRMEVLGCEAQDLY
# T1 sequence (P00451 20-1667 partner limits assumed): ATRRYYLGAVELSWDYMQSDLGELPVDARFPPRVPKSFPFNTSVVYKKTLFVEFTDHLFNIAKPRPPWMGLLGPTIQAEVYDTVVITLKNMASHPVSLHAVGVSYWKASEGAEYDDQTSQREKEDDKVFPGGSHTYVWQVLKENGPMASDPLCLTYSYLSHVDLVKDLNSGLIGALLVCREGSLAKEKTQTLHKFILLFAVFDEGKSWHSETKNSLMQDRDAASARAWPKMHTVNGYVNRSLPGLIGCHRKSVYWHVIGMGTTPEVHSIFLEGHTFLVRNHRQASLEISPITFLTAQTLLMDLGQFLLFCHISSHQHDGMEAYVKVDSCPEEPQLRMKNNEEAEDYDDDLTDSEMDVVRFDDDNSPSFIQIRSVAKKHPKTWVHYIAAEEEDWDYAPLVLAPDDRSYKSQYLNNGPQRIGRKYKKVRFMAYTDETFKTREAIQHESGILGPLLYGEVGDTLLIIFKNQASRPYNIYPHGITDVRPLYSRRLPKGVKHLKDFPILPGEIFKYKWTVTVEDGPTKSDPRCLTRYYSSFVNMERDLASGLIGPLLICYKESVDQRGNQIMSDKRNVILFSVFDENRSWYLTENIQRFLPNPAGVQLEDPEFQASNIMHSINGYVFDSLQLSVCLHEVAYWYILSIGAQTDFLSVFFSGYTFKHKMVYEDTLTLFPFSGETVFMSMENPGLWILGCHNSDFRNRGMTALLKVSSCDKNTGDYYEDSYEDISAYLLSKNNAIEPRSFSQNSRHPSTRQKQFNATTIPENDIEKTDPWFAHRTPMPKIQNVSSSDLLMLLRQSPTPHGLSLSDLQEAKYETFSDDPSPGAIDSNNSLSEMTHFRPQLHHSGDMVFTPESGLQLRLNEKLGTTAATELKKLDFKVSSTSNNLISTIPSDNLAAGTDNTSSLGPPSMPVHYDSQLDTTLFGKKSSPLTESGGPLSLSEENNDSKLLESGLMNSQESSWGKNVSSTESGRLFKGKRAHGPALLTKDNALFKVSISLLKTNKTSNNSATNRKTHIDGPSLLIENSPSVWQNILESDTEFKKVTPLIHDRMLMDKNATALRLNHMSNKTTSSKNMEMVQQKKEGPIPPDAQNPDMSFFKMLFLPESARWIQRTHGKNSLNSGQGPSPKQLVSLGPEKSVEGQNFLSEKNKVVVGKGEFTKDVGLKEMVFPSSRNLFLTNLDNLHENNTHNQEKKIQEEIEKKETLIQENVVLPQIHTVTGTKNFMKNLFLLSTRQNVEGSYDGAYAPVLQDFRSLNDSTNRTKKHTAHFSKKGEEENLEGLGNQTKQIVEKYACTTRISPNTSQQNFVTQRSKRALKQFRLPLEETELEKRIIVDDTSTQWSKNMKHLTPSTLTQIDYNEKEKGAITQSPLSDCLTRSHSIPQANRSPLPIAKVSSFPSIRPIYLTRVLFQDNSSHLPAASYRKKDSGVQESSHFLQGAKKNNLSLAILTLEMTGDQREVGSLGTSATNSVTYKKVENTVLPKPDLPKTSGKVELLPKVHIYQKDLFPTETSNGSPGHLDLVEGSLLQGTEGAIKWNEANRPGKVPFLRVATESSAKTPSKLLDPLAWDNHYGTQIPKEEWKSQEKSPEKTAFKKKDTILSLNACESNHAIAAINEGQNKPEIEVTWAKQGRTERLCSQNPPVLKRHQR
structure (smiles),measurement,setting,value
"N[C@@H](COP(=O)(O)O)C(=O)O [OPLS, O-Phospho-L-Serine]",pKd,"[1]; fluorescence titration, FIG. 2, read-out: Dissociation constant (Kd) of OPLS binding to FVIII",5.08
same,Binding affinity of FVIII for OPLS,[1]; spectroscopic titration,highest affinity
same,Binding of GAA peptide to OPLS,[2],did not bind
same,IL-12p70 production by BMDC,[3],total shut down
same,TGF-β production by BMDC,[4],dose dependent increase
same,FVIII plasma exposure after intravenous co-administration,"[5]; iv, FIG. 4",slight increase
same,Bioavailability after subcutaneous co-administration,[5]; sc co-administration vs biotherapeutic alone,improves
same,Lymphatic uptake from the subcutaneous space,"[5]; sc co-administration vs biotherapeutic alone, FIGS. 5A and 5B",improves
same,Anti-Humira antibody titers vs Humira alone,[6],lower
same,Impact on renal and hepatic function (plasma chemistry markers),[7],no impact
same,% of B-cells,[8],transient increase
same,"Lymphocyte subsets, baseline vs post treatment","[8]; days 0, 8, 22",no significant change
same,Impact on renal and hepatic function (plasma chemistry markers),[9],no impact

# Reference: patent US20220016241A1, “COMPOSITIONS AND METHODS FOR REDUCING ANTIGEN-SPECIFIC IMMUNOGENICITY” (The Research Foundation for The State University of New York, priority 2013, published 2022)
